Measurements: US9889184B2 (priority 2008, dated 2018)
pIC50: −log10 of the molar value. Like-named read-outs stand apart in the source and are kept apart here.

Tests used:
Fov hyphae [1] = test: Membrane permeabilization of Fov hyphae, SYTOX green uptake; type: cell-based, Fusarium oxysporum f. sp. vasinfectum
Description: (§1) Fov hyphae were grown in half-strength PDB (10 mL in a 50 mL tube) from a starting concentration of 5×10^4 spores/mL for 18 h at 25° C. with constant shaking. Samples (1 mL) were then removed and NaD1 (final concentration 2 μM), NaD1R&A (final concentration 2 μM) or an equivalent volume of water was added before incubation for 2 h at RT with gentle agitation. SYTOX® green (Invitrogen-Molecular Probes, Eugene, Oreg.) was added to a final concentration of 0.5 μM and the hyphae were allowed to stand for 10 min. Hyphae (20 μL) were then transferred to microscope slides (SuperFrost (Registered) Plus, Menzel-Glaser) and covered with glass coverslips for visualization of SYTOX® green uptake using an Olympus BX51 fluorescence microscope. SYTOX® green fluorescence was detected using an MWIB filter (excitation wavelength 460-490 nm). Images were captured using a SPOT RT 3CCD digital camera (Diagnostic Instruments) and processed using Adobe Photoshop. SYTOX® green uptake was quantitated by measuring fluorescence of hyphae in microtitre trays using a fluorimeter (SpectraMax M2; Molecular Devices) with excitation and emission wavelengths of 488 nm and 538 nm, respectively.
The effect of temperature on membrane permeabilization of Fov hyphae by NaD1 was monitored as described, except hyphae were pre-equilibrated for 60 min at either 10°, 4° or 0° C. before addition of NaD1 and all subsequent steps were carried out at these temperatures.
The kinetics of membrane permeabilization by NaD1 were studied. Fov hyphae were grown in half-strength PDB from a starting concentration of 5×10^4 spores/mL for 18 h at 25° C. Hyphae (80 μL) were then transferred to 96-well microtitre plates and incubated with SYTOX® green (0.5 μM) for 10 min prior to the addition of 20 μL of peptide solution to give final protein concentrations of 0.2, 0.4, 0.8, 1.6, 3.12, 6.25, 12.5, 25, 50 or 100 μM. Fluorescence readings (Ex; 488 nm, Em; 538 nm) were then taken every 2 min for 3 h using a fluorimeter (SpectraMax M2).

Fusarium graminearum = type: cell-based
Fov = test: Effect of metal ions on NaD1 activity against Fov; type: cell-based, Fusarium oxysporum f. sp. vasinfectum; conditions: NaD1 10 μM, growth of Fov
From the text: (§2) Antifungal activity against Fusarium oxysporum f. sp. vasinfectum (Fov, Australian isolate VCG01111 isolated from cotton; from Wayne O'Neill, Farming Systems Institute, DPI, Queensland, Australia), Thielaviopsis basicola (gift from David Nehl, NSW DPI, Narrabri, Australia), Verticillium dahliae (from Helen McFadden, CSIRO Plant Industry, Black Mountain, Australia), Leptosphaeria maculans (from Barbara Howlett, University of Melbourne, Victoria, Australia) and Aspergillus nidulans (from Michael Hynes, University of Melbourne) was assessed essentially as described in Broekaert et al, 1990. Spores were isolated from sporulating cultures growing in either half-strength potato dextrose broth (PDB) (Fov and T. basicola), Czapeck-Dox Broth (V. dahliae) (Difco Laboratories) or 10% (v/v) clarified V8 medium (L. maculans and A. nidulans) by filtration through sterile muslin. Spore concentrations were determined using a hemocytometer and adjusted to 5×10^4 spores/mL in the appropriate growth medium. Spore suspensions (80 μL) were added to the wells of sterile 96-well flat-bottomed microtitre plates along with 20 μL of filter-sterilized (0.22 μm syringe filter; Millipore) NaD1, or water to give final protein concentrations of 0-10 μM. The plates were shaken briefly and placed in the dark at 25° C. without shaking until the optical density at 595 nm of the water control reached approximately 0.2 (24-72 h depending on growth rate). Hyphal growth was estimated by measuring the optical density at 595 nm using a microtitre plate reader (SpectraMax Pro M2; Molecular Devices). Each test was performed in quadruplicate.
The activity of NaD1 against Fov was examined as described with varying concentrations of CaCl2 (0.1, 0.2, 0.5, 1.0 and 2.0 μM) or MgCl2 (1.0, 2.0, 10, 20 and 50 μM) present in the medium to determine the effects of divalent cations on NaD1 activity.

[2] = system: Fusarium oxysporum f. sp. vasinfectum (Fov) hyphae; test: Permeabilisation of Fov hyphae by defensins, SYTOX green (Example 10); type: cell-based; conditions: within 60 mins; followed over 2 h
Description: as §1
The ability of defensins to permeabilise Fusarium oxysporum f. sp. vasinfectum (Fov) hyphae was assessed using a SYTOX green assay as described in the detailed description (NaD1 and membrane permeabilisation).

Fov hyphae [3] = test: Detection of reactive oxygen species (DHR123 oxidation); type: cell-based, Fusarium oxysporum f. sp. vasinfectum
Description: Fov hyphae were grown as described herein and incubated with 5 μg/mL dihydrorhodamine 123 (Sigma-Aldrich) for 2 h followed by extensive washing with growth medium. […] Fluorescence was then measured on a fluorimeter with excitation and emission wavelengths of 488 nm and 538 nm respectively or visualized by fluorescence microscopy. The experiment was repeated either in the presence of ascorbic acid (10 mM) or 2,2,6,6-tetramethylpiperidine-N-oxyl (TEMPO, 3 mM).

[4] = system: Fusarium oxysporum f. sp. vasinfectum (Fov); test: Growth inhibition of Fov by NaD1 (microtitre OD595); type: cell-based
Description: Lyophilized NaD1 (500 μg) was dissolved in 400 μL of stock buffer (200 mM Tris-HCl pH 8.0, 2 mM EDTA, 6 M guanidine-HCl, 0.02% [v/v] Tween-20). Reduction buffer (stock buffer with 15 mM dithiothreitol [DTT]) was added (44 μL) followed by a 4.5 h incubation at 40° C. The reaction mixture was cooled to RT before iodoacetic acid (0.5 M in 1 M NaOH, 55 μL) was added and the incubation continued in the dark for 30 min at RT. A Nanosep omega (Registered) spin column (3K molecular weight cut off, PALL Life Sciences) was used to remove salts, DTT and iodoacetic acid and the protein concentration was determined using the BCA protein assay (Pierce). The effect of reduced and alkylated NaD1 (NaD1R&A) on the growth of Fusarium oxysporum (Fov) was measured as described herein.
as §2

NaD1: plant defensin isolated from floral tissue of Nicotiana alata (SEQ ID NO:12) (RECKTESNTFPGICITKPPCRKACISEKFTDGHCSKILRRCLCTKPC; Nicotiana alata (NaD1))
NaD1-induced permeabilization (SYTOX green uptake) (Fov hyphae [1]; 0° C., compared with 4° C.): reduced even further
permeabilization of Fov hyphal membranes (SYTOX green) (Fov hyphae [1]; 0.1, 2 or 10 μM NaD1 or 10 μM NaD1R&A): permeabilized hyphae
NaD1-induced permeabilization (SYTOX green uptake) (Fov hyphae [1]; 4° C.): only a small degree of permeabilization
NaD1-induced permeabilization (SYTOX green uptake) (Fov hyphae [1]; 10° C., less than at 25° C.): substantial uptake of SYTOX® green
NaD1 concentration up to which Vmax increased linearly; above it rate unchanged (saturable) (Fov hyphae [1]; Vmax = maximum rate of fluorescence increase): 6.25 µM
NaD1 concentration up to which the rate of permeabilization increased progressively (Fov hyphae [1]; above it (up to 50 μM) very little difference in kinetics): 3 µM
lag time before permeabilization (Fov hyphae [1]; all NaD1 concentrations): around 20 min
time after which fluorescence began to plateau (Fov hyphae [1]; all NaD1 concentrations): 90 min
SYTOX green uptake (Fov hyphae [1]; lowest concentration of NaD1 (0.1 μM)): a small amount of SYTOX® green uptake occurred
toxicity with Fusarium graminearum (Fusarium graminearum; 0.5 μM NaD1 combined with 0.5 μM/mL NaCys2, FIG. 3B): significantly enhanced
toxicity with Fusarium graminearum (Fusarium graminearum; 0.5 μM NaD1 in the absence of NaCys2, FIG. 3B): very low
Ca2+ more antagonistic than Mg2+ (Fov): greater than 20 times
CaCl2 concentration giving complete inactivation of NaD1 (Fov): < 2 mM
MgCl2 concentration giving complete inactivation of NaD1 (Fov): 50 mM
permeabilisation of Fov hyphae (SYTOX green) [2]: efficiently permeabilise
ROS production, DHR123 fluorescence (Fov hyphae [3]; NaD1 0.1, 2 and 10 μM or 10 μM NaD1R&A): concentration-dependent increase in fluorescence
DHR123 oxidation by NaD1 in the presence of ROS scavengers (Fov hyphae [3]; ascorbic acid or TEMPO present): did not alter the level of fluorescence
growth retarded ([4]; 1 μM NaD1, Fov): 50%
growth inhibited ([4]; 5 μM NaD1, Fov): more than 80%
growth inhibition of Fov by NaD1 with ROS scavenger ([4]; 10 mM ascorbic acid): nor did the presence of 10 mM ascorbic acid affect growth inhibition
pIC50 ([4]; Fusarium oxysporum f. sp. vasinfectum): 6.00
growth inhibition of Fov ([4]; NaD1 0.1 μM): no growth inhibition was observed
growth inhibition of Fov ([4]; NaD1 concentration used for microscopy (10 μM)): > 90%
